The record followed here is ChEMBL document CHEMBL1147919, “Syntheses and binding affinities of 6-nitroquipazine analogues for serotonin transporter. Part 5: 2'-Substituted 6-nitroquipazines” (Bioorg Med Chem, 2007).

Sequence of Sodium-dependent serotonin transporter (P31652 whole entry): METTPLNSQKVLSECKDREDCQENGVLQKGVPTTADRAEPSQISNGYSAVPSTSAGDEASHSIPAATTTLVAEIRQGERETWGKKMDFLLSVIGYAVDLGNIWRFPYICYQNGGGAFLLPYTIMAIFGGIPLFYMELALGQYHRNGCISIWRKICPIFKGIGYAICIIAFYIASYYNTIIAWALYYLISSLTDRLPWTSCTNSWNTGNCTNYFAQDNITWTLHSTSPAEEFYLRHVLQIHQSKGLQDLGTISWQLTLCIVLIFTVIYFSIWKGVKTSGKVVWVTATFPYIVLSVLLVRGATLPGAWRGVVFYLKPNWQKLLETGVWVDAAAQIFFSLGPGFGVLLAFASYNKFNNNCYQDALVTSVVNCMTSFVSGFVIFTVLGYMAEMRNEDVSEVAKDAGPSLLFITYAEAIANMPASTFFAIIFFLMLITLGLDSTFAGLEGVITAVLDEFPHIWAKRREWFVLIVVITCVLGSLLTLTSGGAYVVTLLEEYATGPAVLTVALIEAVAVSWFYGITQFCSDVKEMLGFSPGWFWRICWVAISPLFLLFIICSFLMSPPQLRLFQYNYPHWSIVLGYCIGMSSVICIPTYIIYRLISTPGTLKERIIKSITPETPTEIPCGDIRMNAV

This assay concerns the target Sodium-dependent serotonin transporter (Rattus norvegicus, UniProt P31652). The assay can be described thus: Displacement of [3H]citalopram from Sprague-Dawley rat SERT. (In general: Loss of bound radioactivity is the signal in a displacement assay; it reports binding, not function.)
For the molecule `CCCOCC1CNCCN1c1ccc2cc([N+](=O)[O-])ccc2n1` (stereo unspecified), the inhibition constant Ki (in general, the equilibrium dissociation constant of an inhibitor or competing ligand from its target) turned out to be 5.67 nM.

With `CCCCOCC1CNCCN1c1ccc2cc([N+](=O)[O-])ccc2n1` (stereo unspecified), affinity was put at a Ki of 15.4 nM.

On to `O=[N+]([O-])c1ccc2nc(N3CCNCC3CO)ccc2c1` (stereo unspecified), for which the affinity corresponds to a Ki of 0.43 nM.

`O=[N+]([O-])c1ccc2nc(N3CCNCC3)ccc2c1` [6-NITROQUIPAZINE] came in with an inhibition constant Ki of 0.24 nM.

`CCOCC1CNCCN1c1ccc2cc([N+](=O)[O-])ccc2n1` (stereo unspecified) gave a Ki of 0.43 nM.

`COCC1CNCCN1c1ccc2cc([N+](=O)[O-])ccc2n1` (stereo unspecified) displayed a Ki of 0.68 nM.
